Reference: article PMC7409197, “Adenosine Receptors as Neuroinflammation Modulators: Role of A1 Agonists and A2A Antagonists” (Cells, 2020)

Experiments:
mixed glial cells [1] = assay: Griess assay (nitrite production) in mixed glial cells; format: cell-based, rat; settings: 30 min
Procedure: To test the antioxidant capacity of these new molecules Griess assay was performed. The Griess Reagent System is based in the conversion of sulphanilamide into an azo-compound with the presence of N-1-napthylenediamide dihydrochloride (NED) under acidic condition. 1.7 × 10^4 mixed glial cells were cultured in 98 μL of the specific medium in a 96 well plate overnight. After 24 h the media from each well of the cell culture was transferred into a 96 well plate and then 50 µL of the sulphanilamide solution was added to each well. After 5–10 min of incubation at room temperature (rt), 50 µL of the NED Solution were dispensed to all wells and they were incubated at rt for other 5–10 min. Absorbance was measured within 30 min in the plate reader GENiosPro with a filter between 520 nm and 550 nm. This experiment was performed 3–5 replicates. Concentration of NO¬¬¬¬2¯ in each sample was determined by comparison to a Nitrite standard reference curve.

mixed glial cells [2] = assay: CellTiter 96 AQueous One (MTS) cell viability, ligands alone, mixed glial cells; format: cell-based, rat; settings: for toxicity in vitro (cell viability): compared with CCPA and ZM241385; for cell viability vs. control: ligand alone
Procedure: (§1) Newborn male Wistar rats were sacrificed and mixed glial cell cultures were obtained from the cerebral cortices. Cerebral cortices were dissected, and meninges were cleared away. Tissues were treated with trypsin solution (trypsin 0.05% (w/v) trypsin-EDTA 5 mM) for 25 min at 37 °C. The tissue was fully disaggregated by pipetting and the dissociated cells were seeded in a 6-well plate with Dulbecco’s modified Eagle’s/High glucose medium enriched with 100 U/mL penicillin, 100 µg/mL streptomycin and 10% FBS. Fresh medium was changed the next day and then every 3 days decreasing the quantity of FBS. All experiments were carried out after 7–9 days of plating.
(§2) Mixed glial cell cultures were divided into 2 groups, one to study A1AR partial agonists and another for A2AAR antagonists. Cells from the first group were pre-treated with 2 µL at three different concentrations of C1 for 15, 30 or 60 min and then with further addition of a pro-inflammatory cocktail of cytokines (TNF-α, 20 ng/mL; IL-1β, 20 ng/mL; IFN-γ 20 ng/mL) for 48 h. […] To study C2 cells were pre-treated with the same CK cocktail for 48 h and then with 2 µL of C2 at three different concentrations for 15, 30, or 60 min (Scheme 1). ZM241385, a well known A2AAR antagonist, was used as reference compound. Furthermore, ligands and CK were tested alone for 15, 30 or 60 min and 48 h respectively.
(§3) 1.7 × 10^4 mixed glial cells were cultured in 98 μL of the specific medium in a 96 well plate overnight. The next day 2 μL of ligand or CK cocktail were added to the well. After all treatments, 20 µL of CellTiter 96® AQueous One Solution Reagent was added in a final volume of 100 µL. Absorbance was read at 490 nm using the plate reader GENiosPro. Cell viability was calculated as percentage using the following formula: Cell viability =OD mean of treated cells/OD mean of control cells × 100

Sprague Dawley rats = assay: Y Maze short-term memory in LPS neuroinflammation rat model; format: in vivo; settings: for short-term memory impairment by LPS (novel arm preference, Y Maze) / short-term memory performance, compound alone (Y Maze): rats; for short-term memory performance, compound alone (Y Maze): saline instead of LPS
Procedure: Animal procedures were performed in accordance with the European Community guidelines (Directive 2010/63/EU), Portuguese law on animal care (DL 113/2013), and approved by the Instituto de Medicina Molecular Internal Committee and the Portuguese Animal Ethics Committee (Direcção Geral de Veterinária). Environmental conditions were kept constant: food and water ad libitum, 21 ± 0.5 °C, 60% ± 10% relative humidity, 12 h light/dark cycles, 3–5 rats per double-decker ventilated cage. Male Sprague Dawley rats 8 weeks old were divided into the following groups (Table 1):
C1 was dissolved in 5% DMSO + 95% H2O to a final concentration of 7 mg/mL and C2 was dissolved in DMSO to a final concentration of 5 mg/mL. Accordingly, vehicle for G1 was 5% DMSO + 95% H2O and for G2 was DMSO.
Animals were anesthetized with a cocktail of 75 mg/kg ketamine + 1 mg/kg dexmedetomidine. Once rats were deeply anesthetized, the head was fixed into a stereotaxic frame and an incision made on the scalp to expose the skull. Coordinates for injection were AP -1.0, ML ± 1.5, DV -3.7 mm. For G1, LPS was delivered bilaterally 5 µL of a 1 µg/µL LPS solution per hemisphere, and C1 was delivered also i.c.v. 15 min before the LPS injection, 5 µL of a 7 µg/µL solution. Flow rate was kept at 1 µL/min, using an automatic injector coupled to a 10 µL hamilton syringe gauge 30. After each injection, 5 min were allowed for diffusion of the drugs before slowly removing the needle. After the procedure, rats were sutured, administered atipamezole (1 mg/kg) to reverse anesthesia, and brought back to a heated cage until fully recovered. For G2, rats were injected i.p. with a 2.5 mg/kg solution of C2, 30 min after the i.c.v. injection of LPS 5 µg/5 µL per hemisphere, in total of 10 µg. Rats were monitored for sickness behavior (body temperature, general activity) and given access to gel food in the first 48 h.
Y Maze is a behavior test useful to measure short-term spatial working memory. Animals are introduced in the maze always in the same starting position, at the end of the start arm. An initial habituation phase of 8 min, animals freely explore 2 of the arms, the 3rd being closed. Sixty minutes after the habituation period animals are placed again in the maze for 5 min this time with all 3 arms available to exploration. Using the Smart video tracing software, each animal’s route was registered. The time spent in the arm initially closed, which for the animal is the novel, unexplored environment, is calculated in relation to the time spent in the already familiar arms.

mixed glial cells [3] = assay: Hoechst assay, cell area and circularity in mixed glial cells; format: cell-based, rat; settings: compound 1 pre-treatment, compound 2 post-treatment, with CK cocktail
Procedure: This assay was carried out using Hoechst 33258. 6 × 10^5 mixed glial cells were seeded in a six well plate. After 24 h the media was eliminated, and cell cultures washed with PBS. Then, they were washed with acetic acid/methanol solution 50:50, again washed with PBS and incubated 10 min with a fixative solution. After this, cells were cleaned with distilled water and incubated light protected for 30 min at rt with Hoechst (1 µg/mL). Finally, the dye was discarded, and cells washed with water. Glycerol solution was added and cells were observed under an Olympus microscope. The cell area and circularity were measured using ImageJ as image analyzing software. Area and circularity were calculated as percentage using the following formula:(1) Area or circularity =area or circularity of treated cells/area or curcularity of control cells × 100

mixed glial cells [4] = assay: MTS cell viability in cytokine cocktail (CK) inflammatory model, mixed glial cells; format: cell-based, rat
Procedure: as §1, §2, §3

Row | blood brain barrier (BBB) crossing (Sprague Dawley rats; inferred from rescue of CNS insult after i.p. injection in rats) | Structure (SMILES) | nitrite levels in presence of CK cocktail (mixed glial cells [1]; 10 nM, after CK cocktail) | levels of nitrite produced (mixed glial cells [1]; 10 nM, alone) | toxicity in vitro (cell viability) (mixed glial cells [2]) | cell viability vs. control (mixed glial cells [2]; 10 nM, 15 min) | cell viability vs. control (mixed glial cells [2]; 10 nM, 30 min) | cell viability vs. control (mixed glial cells [2]; 10 nM, 60 min) | cell viability vs. control (mixed glial cells [2]; 60 nM, tendency to toxicity) | short-term memory impairment by LPS (novel arm preference, Y Maze) (Sprague Dawley rats; 2.5 mg/kg i.p. 30 min after i.c.v. LPS) | short-term memory performance, compound alone (Y Maze) (Sprague Dawley rats; 2.5 mg/kg i.p.) | cell area and circularity (Hoechst), effect against CK aggression (mixed glial cells [3]) | cell viability vs. control (mixed glial cells [4]; CK cocktail 20 ng/mL 48 h, then ligand 5 nM for 15 min) | cell viability vs. control (mixed glial cells [4]; CK cocktail 20 ng/mL 48 h, then ligand 10 nM for 30 min) | antioxidant activity (Griess) (mixed glial cells [1]; 5.5 µM, alone and in combination with CK) | cell viability vs. control (mixed glial cells [2]; 5.5 µM, 30 min) | cell viability vs. control (mixed glial cells [2]; 30 µM, 15 min) | short-term memory impairment by LPS (novel arm preference, Y Maze) (Sprague Dawley rats; i.c.v. 5 µL of 7 µg/µL 15 min before i.c.v. LPS) | short-term memory performance, compound alone (Y Maze) (Sprague Dawley rats; i.c.v.) | cell viability vs. control (mixed glial cells [4]; pre-treatment 5.5 µM for 30 min, then CK cocktail 48 h) | prevention of CK aggression (cell viability, words) (mixed glial cells [4]; pre-treatment before CK cocktail 48 h, C1 2-30 µM, CCPA 10 nM 30 min)
1 | readily crosses the BBB | CCn1c(Cl)nc2c(N)nc(OCCc3ccccc3)nc21 [Compound C2, 8-chloro-9-ethyl-2-phenethoxyadenine] | able to decrease the high nitrite levels | lower than those obtained in control | no toxic effect | 110 ± 2.7% | 127 ± 3.1% | 125 ± 4.3% | ~80% | rescued | devoid of any effects in memory performance | protective effect | 138 ± 1.7% | 233 ± 3.4% | – | – | – | – | – | – | –
2 | – | OC[C@H]1O[C@@H](n2cnc3c(NC4CCCC4)nc(Cl)nc32)C[C@@H]1O [Compound C1, 2-chloro-N^6-cyclopentyl-2′-deoxyadenosine] | – | – | no toxic effect | – | – | – | – | – | – | protective effect | – | – | did not show any antioxidant activity | 116 ± 1.7% | 117 ± 1.3% | rescued | reduction in the short-term memory performance | 113 ± 3.1% | able to prevent the CK aggression
